# Measured values taken from patent publication US10668040B2, “Treatment of urea cycle disorders in neonates and infants” (Horizon Therapeutics, LLC, priority 2017, dated 2020).
# Test system: UCD patients
# Test: Example 3: TEAEs, serious and non-serious adverse events
# Assay type: in vivo
# Description: Sixteen newborn infants aged 0 to 27 days, and 10 infants and toddlers aged 28 days to 23 months received RAVICTI Oral Liquid administered just prior to breastfeeding or intake of formula or food. The recommended dosing regimen was 3-6 times per day depending on feeding schedule.
# Number of Subjects with Treatment-Emergent Adverse Events (TEAEs), Serious TEAEs, Deaths, and Discontinuations Due to TEAEs
# An adverse event (AE) is any untoward medical occurrence, whether or not the event is considered related to the study drug. A serious AE is any AE that: results in death; is life threatening; requires hospitalization or prolongation of existing hospitalization; results in disability/incapacity; is a congenital anomaly/birth defect; is an important medical event. TEAEs are defined as AEs with an onset date on or after the first dose of study medication until study discontinuation. The Investigator assessed the causal relationship of each TEAE to the study drug as not related, possibly related, or probably related. From the first dose of study treatment through 30 days after the final dose (mean [SD] duration of treatment was 9.13 [6.838] months).
# [1] = Non-serious adverse events, Age 0 to <2 Months
smiles,measurement,setting,value
"O=C(CCCc1ccccc1)OCC(COC(=O)CCCc1ccccc1)OC(=O)CCCc1ccccc1 [RAVICTI, benzenebutanoic acid, 1′,1″-(1,2,3-propanetriyl) ester]",Serious AE Feeding Disorder: Occurrences causally related to treatment/all,Age 2 Months to <2 Years,0/0
same,Serious AE Gastroenteritis: Deaths causally related to treatment/all,Age 2 Months to <2 Years,0/0
same,Serious AE Gastroenteritis: Occurrences causally related to treatment/all,Age 2 Months to <2 Years,0/1
same,Serious AE Hyperammonaemia: Deaths causally related to treatment/all,Age 2 Months to <2 Years,0/0
same,Serious AE Hyperammonaemia: Occurrences causally related to treatment/all,Age 2 Months to <2 Years,0/7
same,Serious AE Influenza: Deaths causally related to treatment/all,Age 2 Months to <2 Years,0/0
same,Serious AE Influenza: Occurrences causally related to treatment/all,Age 2 Months to <2 Years,0/1
same,Serious AE Lethargy: Deaths causally related to treatment/all,Age 2 Months to <2 Years,0/0
same,Serious AE Lethargy: Occurrences causally related to treatment/all,Age 2 Months to <2 Years,0/0
same,Serious AE Medical device site infection: Deaths causally related to treatment/all,Age 2 Months to <2 Years,0/0
same,Serious AE Medical device site infection: Occurrences causally related to treatment/all,Age 2 Months to <2 Years,0/0
same,Serious AE Meningitis bacterial: Deaths causally related to treatment/all,Age 2 Months to <2 Years,0/0
same,Serious AE Meningitis bacterial: Occurrences causally related to treatment/all,Age 2 Months to <2 Years,0/0
same,Serious AE Neutropenia: Deaths causally related to treatment/all,Age 2 Months to <2 Years,0/0
same,Serious AE Neutropenia: Occurrences causally related to treatment/all,Age 2 Months to <2 Years,0/0
same,Serious AE Peritonitis: Deaths causally related to treatment/all,Age 2 Months to <2 Years,0/1
same,Serious AE Peritonitis: Occurrences causally related to treatment/all,Age 2 Months to <2 Years,0/1
same,Serious AE Pneumatosis intestinalis: Deaths causally related to treatment/all,Age 2 Months to <2 Years,0/1
same,Serious AE Pneumatosis intestinalis: Occurrences causally related to treatment/all,Age 2 Months to <2 Years,0/1
same,Serious AE Pyrexia: Deaths causally related to treatment/all,Age 2 Months to <2 Years,0/0
same,Serious AE Pyrexia: Occurrences causally related to treatment/all,Age 2 Months to <2 Years,0/1
same,Serious AE Respiratory syncytial virus infection: Deaths causally related to treatment/all,Age 2 Months to <2 Years,0/0
same,Serious AE Rhinovirus infection: Deaths causally related to treatment/all,Age 2 Months to <2 Years,0/0
same,Serious AE Status asthmaticus: Deaths causally related to treatment/all,Age 2 Months to <2 Years,0/0
same,Serious AE Status asthmaticus: Occurrences causally related to treatment/all,Age 2 Months to <2 Years,0/1
same,Serious AE Tracheitis: Deaths causally related to treatment/all,Age 2 Months to <2 Years,0/0
same,Serious AE Tracheitis: Occurrences causally related to treatment/all,Age 2 Months to <2 Years,0/0
same,Serious AE Upper respiratory tract infection: Deaths causally related to treatment/all,Age 2 Months to <2 Years,0/0
same,Serious AE Upper respiratory tract infection: Occurrences causally related to treatment/all,Age 2 Months to <2 Years,0/0
same,Serious AE Urinary tract infection: Deaths causally related to treatment/all,Age 2 Months to <2 Years,0/0
same,Serious AE Urinary tract infection: Occurrences causally related to treatment/all,Age 2 Months to <2 Years,0/1
same,Serious AE Viral infection: Deaths causally related to treatment/all,Age 2 Months to <2 Years,0/0
same,Serious AE Viral infection: Occurrences causally related to treatment/all,Age 2 Months to <2 Years,0/2
same,Serious AE Viral upper respiratory tract infection: Deaths causally related to treatment/all,Age 2 Months to <2 Years,0/0
same,Serious AE Viral upper respiratory tract infection: Occurrences causally related to treatment/all,Age 2 Months to <2 Years,0/1
same,Serious AE Vomiting: Deaths causally related to treatment/all,Age 2 Months to <2 Years,0/0
same,Serious AE Vomiting: Occurrences causally related to treatment/all,Age 2 Months to <2 Years,0/0
same,"Agitation, Occurrences (all)",[1],1
same,"Alanine aminotransferase increased, Occurrences (all)",[1],1
same,"Amino acid level decreased, Occurrences (all)",[1],1
same,"Amino acid level increased, Occurrences (all)",[1],2
same,"Ammonia increased, Occurrences (all)",[1],1
same,"Anaemia, Occurrences (all)",[1],3
same,"Angular cheilitis, Occurrences (all)",[1],2
same,"Anion gap increased, Occurrences (all)",[1],1
same,"Apnoea, Occurrences (all)",[1],0
same,"Arthropod bite, Occurrences (all)",[1],1
same,"Aspartate aminotransferase increased, Occurrences (all)",[1],1
same,"Blood bicarbonate decreased, Occurrences (all)",[1],1
same,"Blood urea decreased, Occurrences (all)",[1],1
same,"Body height below normal, Occurrences (all)",[1],1
same,"Candida infection, Occurrences (all)",[1],2
same,"Carbon dioxide decreased, Occurrences (all)",[1],2
same,"Cardiac disorders (Tachycardia), Occurrences (all)",[1],1
same,"Catheter site rash, Occurrences (all)",[1],1
same,"Conjunctivitis, Occurrences (all)",[1],0
same,"Constipation, Occurrences (all)",[1],2
same,"Cough, Occurrences (all)",[1],5
same,"Croup infectious, Occurrences (all)",[1],2
same,"Dacryostenosis congenital, Occurrences (all)",[1],0
same,"Decreased appetite, Occurrences (all)",[1],2
same,"Dehydration, Occurrences (all)",[1],4
same,"Dermatitis diaper, Occurrences (all)",[1],6
same,"Device occlusion, Occurrences (all)",[1],1
same,"Diarrhoea, Occurrences (all)",[1],6
same,"Drug withdrawal syndrome, Occurrences (all)",[1],1
same,"Dysphagia, Occurrences (all)",[1],1
same,"Ear and labyrinth disorders (Excessive cerumen production), Occurrences (all)",[1],0
same,"Ear infection, Occurrences (all)",[1],3
same,"Eczema, Occurrences (all)",[1],2
same,"Eye discharge, Occurrences (all)",[1],1
same,"Feeding disorder of infancy or early childhood, Occurrences (all)",[1],1
same,"Flatulence, Occurrences (all)",[1],3
same,"Gamma-glutamyltransferase increased, Occurrences (all)",[1],1
same,"Gastroenteritis, Occurrences (all)",[1],1
same,"Gastrointestinal viral infection, Occurrences (all)",[1],1
same,"Gastrooesophageal reflux disease, Occurrences (all)",[1],6
same,"Gross motor delay, Occurrences (all)",[1],0
same,"Hepatic enzyme increased, Occurrences (all)",[1],2
same,"Hepatobiliary disorders (Hepatic calcification), Occurrences (all)",[1],1
same,"Hyperammonaemia, Occurrences (all)",[1],3
same,"Hypophagia, Occurrences (all)",[1],1
same,"Immune System Disorders (Seasonal allergy), Occurrences (all)",[1],0
